The nature of data set [1]: Pharmacokinetic test in SD rats, single oral administration. The format is in vivo. Particulars: 10 mg/kg, single oral administration 10 mg/kg, test compound mixed with F901318, plasma; for Cmax: read-out: Cmax; for Tmax: read-out: Tmax; for half-life: read-out: T½ (converted). The procedure:
Pharmacokinetic study is performed on SD rats receiving single oral administration of each test compound mixed with F901318 (10 mg/kg, 3 rats per group). Test compounds and F901318 are dissolved with […]+10% solutol+85% saline, vortexed for 1-2 mins and ultra-sonicated for 5-10 mins to form a colorless clear drug solution. The animals are fasted overnight before oral administration, and resumed feeding 4 hours after administration. After oral administration, pharmacokinetic samples are collected from orbital blood of SD rats at 0.083 h, 0.25 h, 0.5 h, 1 h, 2 h, 4 h, 6 h, 8 h, and 24 h, and three whole blood samples are collected at each time point in a volume of 0.2-0.3 mL. Blood samples are placed on ice immediately after collected, and the plasma is separated by centrifugation within 15 min (centrifugation conditions: 8000 rpm, 1 min, and at room temperature).
The collected plasma is stored at −20° C. prior to analysis. Transfer 20 μL of plasma sample into an 0.5 mL EP tube, add 200 μL of working internal standard solution (blank group is without internal standard, using the same volume of solvent instead), vortex and mix for 3 min centrifuge at 13500 rpm for 10 min, take 100 μL of supernatant and analyze with LC-MS/MS.

The test system of data set [2] is Aspergillus fumigatus (ATCC MYA-4609/AF293/CBS 101355). Kind of data set: Measurement of minimum inhibitory concentration (MIC), AF293. The format is cell-based. The conditions noted are these: CBS101355; Aspergillus fumigatus AF293, 35° C., 48 hours, RPMI1640; read-out: AF293: MIC. The gist of the method:
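Broth microdilution in RPMI1640 buffered with 0.165M MOPS, pH 7.0, spore inoculum 0.2-2.5×10^4 spores/mL from SDA cultures. Twofold compound dilutions in DMSO, 1% of final volume. Incubated 35 °C for 48 h; growth scored visually with magnifier and OD530 read.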

In data set [3] the test system is Aspergillus flavus (ATCC MYA-1004). Kind of data set: Measurement of minimum inhibitory concentration (MIC), ATCC MYA-1004. The class given is cell-based. Particulars: Aspergillus flavus ATCC MYA-1004, 35° C., 48 hours. As for the experimental part: (§1) New streaks are made with glycerol stock solution of the strains of Aspergillus fumigatus (ATCC MYA-4609/AF 293/CBS 101355) on Sabouraud's dextrose agar (SDA), incubate at 35° C. and a humidity of 40-70% for 72 hours. Other strains are processed as the same as AF293.
(§2) RPMI1640: one packet of RPMI1640 powder is dissolved in 1 L purified water and mixed well, add 0.165M MOPS, adjust the pH to 7.0, sterilize by filtration with 0.22 um membrane, and store at 4° C. for no more than 3 months.
(§3) Physiological saline: weigh 9 g of sodium chloride powder and dissolve in 1 L of purified water, and mixed well. Sterilize at 121° C. for 30 min, store at room temperature (RT) for no more than 1 week.
(§4) Dissolve the test compound and stock solution of one control compound with DMSO and obtain solutions at a concentration of 12.8 mg/mL
(§5) The maximum concentration of each compound is 0.8 mg/mL (e.g., 150 μL of dimethyl sulfoxide+10 uL of 12.8 mg/mL compound/control). Column 1 is filled with 40 μL of compound and columns 2 to 11 with 20 μL of dimethyl sulfoxide. Transfer 20 μL of compound from column 1 to column 2 to dilute the concentration. Repeat the above steps up to column 11 to give 2× serial dilutions.
(§6) 2 μL of the above 2× serial dilutions are injected into each hole of the corresponding test plate using a multichannel pipette.
(§7) Drop 5 ml of saline on the Aspergillus fumigatus SDA plate. The spores were carefully wiped off from the surface of the plate with an L-shaped coating rod. Then the suspension is transferred into a sterile tube. After shaking, let the tube stand for 5 to 10 minutes. Count the number of spores in the upper suspension with a hemocytometer and check the purity. Adjust the inoculum concentration to 0.2-2.5×10^4 spores/mL.
(§8) Inject 198 μL of diluted inoculum into each holes of the corresponding test plate using a multichannel pipette.
(§9) Incubate at 35° C. for 48 hours.
(§10) To facilitate scoring of the presence or absence of growth on the wall, a magnifying glass is used. The tested 96-well microplates were photographed and the optical density at 530 nm is read with an enzyme marker (Tecan Spark).

Data set [4] concerns Aspergillus flavus (ATCC 204304). Kind of data set: Measurement of minimum inhibitory concentration (MIC), ATCC 204304. The format is cell-based. The conditions noted are these: ATCC204304; Aspergillus flavus ATCC 204304, 35° C., 48 hours. As for the experimental part:
as §1, §2, §3, §4, §5, §6, §7, §8, §9, §10

Data set [5] is described as follows: Liver microsomal stability test, mouse. The class given is in vitro ADME. Particulars: Mouse liver microsomes; for CLint scaled / half-life: 0.5 mg/mL protein, 37° C., NADPH.
[6] abbreviates: SD, rat, plasma, po, read-out: AUC.

In brackets after ≈: the same amount, converted by molar mass. Several values for one entry are separate records, joined by “and”; a condition that tells them apart may be missing. Equal values may be shown once. Read-outs that look alike come from different tables or passages of the source.

Consider `Cc1cc(-c2ccccc2)c(C(=O)C(=O)Nc2ccc3c(c2)C[C@H]2CN(c4ncc(F)cn4)CCN32)n1C` [Example 33, (S)-2-(1,5-dimethyl-3-phenyl-1H-pyrrol-2-yl)-N-(2-(5-fluoropyrimidin-2-yl)-1,2,3,4,10,10a-hexahydropyrazino[1,2-a]indol-8-yl)-2-oxoacetamide], for which the area under the curve (AUC) in data set [1] (setting [6]) was 36100 ng·h/mL. In data set [1] (SD, rat, plasma, po), the maximum concentration (Cmax) worked out at 3490 ng/mL, the time to peak (Tmax) came out at 1 h and the half-life is 7.52 h. Further, in data set [2], the MIC amounted to 4 ng/mL (≈ 7.83 nM). In data set [3], this compound displayed an MIC of 8 ng/mL (≈ 15.7 nM). In data set [4], this compound gave an MIC of 8 ng/mL (≈ 15.7 nM). Moreover, in data set [5], the intrinsic clearance (CLint scaled) amounted to 50.2 mL/min/kg; the half-life worked out at 0.827 h; the “Remaining, (T = 60 min)” value is on record as 44.8%.
For `Cc1cc(-c2ccccc2)c(C(=O)C(=O)Nc2ccc(N3CCN(c4ncc(F)cn4)CC3)cc2)n1C` [Example F901318, reference compound], the AUC in data set [1] (setting [6]) was 7540 ng·h/mL; in data set [1], 9170.038 ng·h/mL and 7652.703 ng·h/mL and 9641.325 ng·h/mL. The minimal inhibitory concentration (MIC) in data set [2] is 30 ng/mL (≈ 60.2 nM); in data set [3], 4 ng/mL (≈ 8.02 nM); in data set [4] it was 4 ng/mL (≈ 8.02 nM). Also, in data set [5], the CLint scaled was determined as 98.9 mL/min/kg. Also, the half-life in data set [5] stood at 0.42 h. The “Remaining, (T = 60 min)” value in data set [5] stood at 18.7%.
As for `Cc1cc(-c2ccccc2)c(C(=O)C(=O)Nc2cc(F)c3c(c2)OC[C@H]2CN(c4ncc(F)cn4)CCN32)n1C` [Example 5], the AUC in data set [1] (setting [6]) came out at 16000 ng·h/mL. In data set [1] (SD, rat, plasma, po), the Cmax is 1930 ng/mL, the Tmax was 1 h and the half-life is 4.29 h. The MIC in data set [2] came out at 16 ng/mL (≈ 29.4 nM). The minimal inhibitory concentration (MIC) in data set [3] turned out to be 4 ng/mL (≈ 7.35 nM). Moreover, it took 4 ng/mL (≈ 7.35 nM) to inhibit growth in data set [4] (MIC). Further, in data set [5], the intrinsic clearance (CLint scaled) is 115 mL/min/kg; the half-life worked out at 0.363 h; the “Remaining, (T = 60 min)” value came out at 15.7%.

(Values after patent US20240327423A1, “A SERIES OF PYRROLE DERIVATIVES AND THEIR PREPARATION METHOD AND THERAPEUTIC USE” (SHENZHEN SUNGENING BIO-MEDICAL CO., LTD, priority 2020, published 2024).)
